In ChEMBL document CHEMBL1201862, “PubChem BioAssay data set” (2004):
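96-well plates; 48 h exposure; 5 concentrations. Endpoints by linear interpolation between flanking doses. Not reached: highest tested concentration assigned. The concentration for 50% growth inhibition is given as GI50.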 Active and inactive are the calls of the source. Rule as the data show it: active = GI50 up to about 1.1 µM and inactive = higher.

Legend:
Test in all cases: NCI-60 cell line screen, 48 h
[1] = system: MOLT-4
[2] = system: XF498
[3] = system: Malme-3M
[4] = system: KM12
[5] = system: OVCAR-8
[6] = system: NCI-H23
[7] = system: SF-539
[8] = system: HOP-18
[9] = system: EKVX
[10] = system: U-251
[11] = system: HCC 2998
[12] = system: SNB-78
[13] = system: SK-OV-3
[14] = system: SK-MEL-2
[15] = system: KM-20L2
[16] = system: SN12C
[17] = system: LOX IMVI
[18] = system: SK-MEL-28
[19] = system: 786-0
[20] = system: UACC-62
[21] = system: A498
[22] = system: HOP-62
[23] = system: RXF 393
[24] = system: OVCAR-3
[25] = system: SK-MEL-5
[26] = system: DMS-273
[27] = system: SR
[28] = system: DMS-114
[29] = system: OVCAR-5
[30] = system: ACHN
[31] = system: SNB-19
[32] = system: RPMI-8226
[33] = system: M19-MEL
[34] = system: DLD-1
[35] = system: A549
[36] = system: SNB-75
[37] = system: TK-10
[38] = system: COLO 205
[39] = system: HL-60
[40] = system: NCI-H522
[41] = system: HCT-116
[42] = system: SF-268
[43] = system: UO-31
[44] = system: CCRF-CEM
[45] = system: M14
[46] = system: LXFL 529
[47] = system: SW-620
[48] = system: HOP-92
[49] = system: K562
[50] = system: HT-29
[51] = system: NCI-H226
[52] = system: UACC-257
[53] = system: SF-295
[54] = system: NCI/ADR-RES
[55] = system: MCF7
[56] = system: MDA-N
[57] = system: MDA-MB-435
[58] = system: IGROV-1
[59] = system: OVCAR-4
[60] = system: PC-3
[61] = system: HCT-15
[62] = system: CAKI-1
[63] = system: MDA-MB-231
[64] = system: NCI-H460
[65] = system: DU-145
[66] = system: Hs-578T
[67] = system: BT-549
[68] = system: T47D

Measured: GI50

CC(=O)N1CCC2(c3ccccc3N(C(C)=O)C2c2ccc(O)cc2)C1C(=O)O (configuration not stated)
inactive: [1] > 100 µM | [2] > 100 µM | [3] > 100 µM | [4] > 100 µM | [5] > 100 µM | [6] > 100 µM | [7] > 100 µM | [8] > 100 µM | [9] > 100 µM | [10] > 100 µM | [11] > 100 µM | [12] > 100 µM | [13] > 100 µM | [14] > 100 µM | [15] > 100 µM | [16] > 100 µM | [17] > 100 µM | [18] > 100 µM | [19] > 100 µM | [20] > 100 µM | [21] > 100 µM | [22] > 100 µM | [23] > 100 µM | [24] > 100 µM | [25] > 100 µM | [26] > 100 µM | [27] > 100 µM | [28] > 100 µM | [29] > 100 µM | [30] > 100 µM | [31] > 100 µM | [32] > 100 µM | [33] > 100 µM | [34] > 100 µM | [35] > 100 µM | [36] > 100 µM | [37] > 100 µM | [38] > 100 µM | [39] > 100 µM | [40] > 100 µM | [41] > 100 µM | [42] > 100 µM | [43] > 100 µM | [44] > 100 µM | [45] > 100 µM | [46] > 100 µM | [47] > 100 µM | [48] > 100 µM | [49] > 100 µM | [50] > 100 µM | [51] > 100 µM | [52] > 100 µM | [53] > 100 µM

C[N+](C)(C)CCC(=O)N1C/C(=C\c2ccccc2)C(=O)/C(=C/c2ccccc2)C1
2.47 µM: [61]
active: [32] 0.385 µM | [47] 0.904 µM
inactive: [1] 2.45 µM | [2] 14.5 µM | [54] 1.64 µM | [3] 15.4 µM | [55] 1.45 µM | [56] 1.9 µM | [4] 1.6 µM | [5] 3.52 µM | [6] 10.4 µM | [7] 5.06 µM | [8] 12.2 µM | [9] 21.4 µM | [10] 3.03 µM | [11] 3.47 µM | [12] 6.65 µM | [13] 23.7 µM | [14] 15.8 µM | [15] 8 µM | [16] 2.08 µM | [17] 1.7 µM | [18] 8.05 µM | [19] 2.38 µM | [20] 3.58 µM | [21] 20.7 µM | [22] 18.1 µM | [23] 11.8 µM | [24] 3.82 µM | [57] 2.29 µM | [25] 9.95 µM | [58] 5.12 µM | [26] 2.19 µM | [59] 3.37 µM | [60] 2.49 µM | [28] 5.98 µM | [29] 16.9 µM | [30] 6.3 µM | [31] 5.38 µM | [33] 4.81 µM | [34] 2.2 µM | [35] 14.7 µM | [36] 7.83 µM | [37] 14.4 µM | [38] 3.47 µM | [62] 6.49 µM | [63] 3.22 µM | [64] 7.87 µM | [39] 2.27 µM | [40] 2.25 µM | [41] 1.53 µM | [42] 5.14 µM | [43] 18.9 µM | [44] 1.64 µM | [45] 2.72 µM | [46] 3.78 µM | [65] 16.8 µM | [48] 20.6 µM | [66] 4.31 µM | [49] 1.21 µM | [50] 2.79 µM | [51] 10 µM | [67] 2.33 µM | [52] 12.2 µM | [68] 2.09 µM | [53] 3.78 µM

Cc1cc(C)nc(NS(=O)(=O)c2ccc(Nc3c4ccccc4nc4c(C(=O)Nc5ccc(S(=O)(=O)N=C(N)N)cc5)ccc(Cl)c34)cc2)n1
inactive: [1] 23.5 µM | [2] 24 µM | [3] 33.6 µM | [4] 42.7 µM | [5] 17.5 µM | [6] 19.7 µM | [7] 19.3 µM | [8] 18.7 µM | [9] 56.4 µM | [10] 18.2 µM | [11] 20 µM | [12] 33.7 µM | [13] 22.9 µM | [15] 35.6 µM | [16] 29.8 µM | [17] 19.4 µM | [18] > 10 µM | [19] 38.9 µM | [20] 19.3 µM | [21] 34.6 µM | [22] 23.2 µM | [23] 18.2 µM | [24] 17.5 µM | [25] 98.6 µM | [26] 32.1 µM | [27] 25.3 µM | [59] 23.9 µM | [28] 21.7 µM | [29] 41.2 µM | [30] 43.5 µM | [31] 20.4 µM | [32] 28.2 µM | [33] 26 µM | [34] 33.1 µM | [35] > 100 µM | [36] 35.7 µM | [37] 34.6 µM | [38] 55 µM | [62] 36.1 µM | [64] 53.1 µM | [39] 24.1 µM | [40] 15.8 µM | [41] 21.9 µM | [42] 27.9 µM | [43] 25.4 µM | [45] 88.5 µM | [46] 25.8 µM | [49] 24.2 µM | [50] 36.3 µM | [51] 21.9 µM | [52] 64.3 µM | [53] 47.2 µM
